Experimental data reported in US11608323B2 (SYNGENTA LIMITED, priority 2013, dated 2023).

Assays:
Format in all cases: in vivo
AMARE [1] = experiment: Post-emergence herbicidal activity, glasshouse pot test; conditions: Amaranthus retroflexus; application post-emergence; rate 1000 g/Ha; evaluated after 13 days
Protocol: (§1) Seeds of a variety of test species were sown in standard soil in pots. After 8 days cultivation (post-emergence) under controlled conditions in a glasshouse (at 24/16° C., day/night; 14 hours light; 65% humidity), the plants were sprayed with an aqueous spray solution derived from the formulation of the technical active ingredient in acetone/water (50:50) solution containing 0.5% Tween 20 (polyoxyethelyene sorbitan monolaurate, CAS RN 9005-64-5). The test plants were then grown in a glasshouse under controlled conditions (at 24/16° C., day/night; 14 hours light; 65% humidity) and watered twice daily. After 13 days, the test was evaluated (5=total damage to plant; 0=no damage to plant).

ABUTH [2] = experiment: as above; conditions: Abutilon theophrasti; application post-emergence; rate 1000 g/Ha; evaluated after 13 days
Protocol: as §1

SETFA [3] = experiment: as above; conditions: Setaria faberi; application post-emergence; rate 1000 g/Ha; evaluated after 13 days
Protocol: as §1

ECHCG [4] = experiment: as above; conditions: Echinochloa crus-galli; application post-emergence; rate 1000 g/Ha; evaluated after 13 days
Protocol: as §1

ZEAMX [5] = experiment: as above; conditions: Zea mays; application post-emergence; rate 1000 g/Ha; evaluated after 13 days
Protocol: as §1

AMARE [6] = experiment: Pre-emergence herbicidal activity, glasshouse pot test; conditions: rate 1000 g/Ha, evaluated after 13 days, scale 0-5
Protocol: as §1, with “After” for “After 8 days”, “for one day (pre-emergence)” for “(post-emergence)”

ABUTH [7] = experiment: as above; conditions: rate 1000 g/Ha, evaluated after 13 days, scale 0-5
Protocol: as §1, with “After” for “After 8 days”, “for one day (pre-emergence)” for “(post-emergence)”

SETFA [8] = experiment: as above; conditions: rate 1000 g/Ha, evaluated after 13 days, scale 0-5
Protocol: as §1, with “After” for “After 8 days”, “for one day (pre-emergence)” for “(post-emergence)”

ECHCG [9] = experiment: as above; conditions: rate 1000 g/Ha, evaluated after 13 days, scale 0-5
Protocol: as §1, with “After” for “After 8 days”, “for one day (pre-emergence)” for “(post-emergence)”

ZEAMX [10] = experiment: as above; conditions: rate 1000 g/Ha, evaluated after 13 days, scale 0-5
Protocol: as §1, with “After” for “After 8 days”, “for one day (pre-emergence)” for “(post-emergence)”

Row | SMILES | Post-emergence herbicidal activity AMARE (damage score 0-5) (AMARE [1]) | Post-emergence herbicidal activity ABUTH (damage score 0-5) (ABUTH [2]) | Post-emergence herbicidal activity SETFA (damage score 0-5) (SETFA [3]) | Post-emergence herbicidal activity ECHCG (damage score 0-5) (ECHCG [4]) | Post-emergence herbicidal activity ZEAMX (damage score 0-5) (ZEAMX [5]) | AMARE damage score, application pre-emergence (AMARE [6]) | ABUTH damage score, application pre-emergence (ABUTH [7]) | SETFA damage score, application pre-emergence (SETFA [8]) | ECHCG damage score, application pre-emergence (ECHCG [9]) | ZEAMX damage score, application pre-emergence (ZEAMX [10])
1 | CON1C(=O)N(c2cc(Cl)c(C(=O)NC(C)(C)C)cn2)C(O)C1C (stereo not drawn) [Compound A70] | 5 | 5 | 5 | 5 | 5 | 5 | 5 | 5 | 5 | 3
2 | CON1C(=O)N(c2cc(C(F)(F)Cl)ccn2)C(O)[C@@H]1C (stereo partly drawn) [Compound A90] | 5 | 5 | 5 | 5 | 5 | 5 | 3 | 4 | 4 | 2
3 | CC1NC(=O)N(c2cc(C(F)(F)Cl)ccn2)C1O (stereo not drawn) [Compound A91] | 5 | 5 | 4 | 5 | 3 | 5 | 5 | 4 | 4 | 2
4 | CCN1CC(O)N(c2cc(C(F)(F)F)ccn2)C1=O (stereo not drawn) [Compound A95] | 5 | 5 | 5 | 5 | 2 | 5 | 5 | 5 | 5 | 1
5 | CCOC1C(O)N(c2ccc(C(F)(F)F)cn2)C(=O)N1C (stereo not drawn) [Compound A83] | 5 | 5 | 4 | 1 | 1 | 5 | 5 | 4 | 4 | 1
6 | CC1C(O)N(c2ccc(C(=O)NC(C)(C)C)cn2)C(=O)N1C (stereo not drawn) [Compound A67] | 5 | 5 | 5 | 5 | 4 | 5 | 5 | 5 | 5 | 3
7 | CCO[C@@H]1C(O)N(c2cc(C(F)(F)F)ccn2)C(=O)N1C (single isomer, unassigned) [Compound A34] | 5 | 5 | 5 | 5 | 4 | 5 | 5 | 5 | 5 | 3
8 | COCCOCc1cnc(N2C(=O)N(C)C(C)C2O)cc1C(F)(F)F (stereo not drawn) [Compound A108] | 5 | 5 | 5 | 5 | 5 | 5 | 5 | 4 | 5 | 2
9 | CCO[C@@H]1[C@@H](OC(=O)[C@](OC)(c2ccccc2)C(F)(F)F)N(c2cc(C(F)(F)F)ccn2)C(=O)N1C [Compound A102] | 5 | 5 | 1 | 2 | 1 | 5 | 5 | 3 | 4 | 1
10 | CON1C(=O)N(c2cc(C(C)(F)F)ccn2)C(O)C1C (single isomer, unassigned) [Compound A93] | 5 | 5 | 5 | 5 | 4 | 5 | 5 | 5 | 5 | 3
11 | COC[C@H]1C(O)N(c2cc(C(F)(F)F)ccn2)C(=O)N1C (stereo partly drawn) [Compound A78] | 5 | 5 | 3 | 5 | 0 | 5 | 5 | 3 | 4 | 1
12 | COCc1cnc(N2C(=O)N(C)C(C)C2O)cc1C(F)(F)F (stereo not drawn) [Compound A105] | 5 | 5 | 5 | 5 | 5 | 5 | 5 | 5 | 5 | 4
